According to ChEMBL document CHEMBL5352461, “Discovery of the novel Benzo[b]thiophene 1,1-dioxide derivatives as a potent STAT3 inhibitor against idiopathic pulmonary fibrosis” (Eur J Med Chem, 2023):
The source made the active and inactive calls. No cut-off for these calls is given here.

Legend:
NIH3T3 = assay: Antiproliferative activity against mouse NIH3T3 cells assessed as cell growth inhibition incubated for 24 to 72 hrs by CCK-8 assay; type: functional, cell-based
Mus musculus [1] = species: Mus musculus; assay: Antifibrotic activity against bleomycin-induced C57BL/6 mouse lung fibrosis model assessed as reduction in CD4-CD69+ T cell in lung incubated for 30 mins by flow cytometry analysis ( Rvb = 6.54%); type: functional; parameters: scale not given: the % may be the effect or the level left; settings: 0.5 h
Mus musculus [2] = species: Mus musculus; assay: Antifibrotic activity against bleomycin-induced C57BL/6 mouse lung fibrosis model assessed as reduction in F4/80+CD11b+ macrophage in lung incubated for 30 mins by flow cytometry analysis ( Rvb = 17.96%); type: functional; parameters: scale not given: the % may be the effect or the level left; settings: 0.5 h
Mus musculus [3] = species: Mus musculus; assay: Antifibrotic activity against bleomycin-induced C57BL/6 mouse lung fibrosis model assessed as reduction in CD11c+MHC II+ in dendritic cells in lung incubated for 30 mins by flow cytometry analysis ( Rvb = 23.67 %); type: functional; parameters: scale not given: the % may be the effect or the level left; settings: 0.5 h
A549 [4] = assay: Induction of morphological changes in TGF-beta1 induced human A549 cells assessed as appearance of spindle shape cells at 200 nM measured for 24 hrs by phase contrast microscopy analysis; type: functional, cell-based
A549 [5] = assay: Inhibition of cell migration in TGF-beta1 induced human A549 cells measured for 24 hrs by contrast-phase microscopic analysis; type: functional, cell-based

Row | Structure (SMILES) | IC50 (NIH3T3) [nM] | other results
1 | O=C(C1=Cc2ccccc2S1(=O)=O)N1CCN(C(=O)c2scnc2Br)CC1 | 810 | –
2 | O=C(NC1CCN(C(=O)C2=Cc3ccccc3S2(=O)=O)CC1)c1cccc(Cl)c1 | 6760 | –
3 | O=C(C1=Cc2ccccc2S1(=O)=O)N1CCN(Cc2ccc(Cl)cc2)CC1 | 2010 | –
4 | O=C(C1=Cc2ccccc2S1(=O)=O)N1CCN(S(=O)(=O)c2cc(F)cc(F)c2)CC1 | 1450 | –
5 | O=C(C1=Cc2ccccc2S1(=O)=O)N1CCN(Cc2ccc3ccccc3c2)CC1 | 6780 | –
6 | O=C(C1=Cc2ccccc2S1(=O)=O)N1CCN(S(=O)(=O)c2ccc3c(c2)CCO3)CC1 | 8890 | –
7 | O=C(C1=Cc2ccccc2S1(=O)=O)N1CCN(Cc2ccc(C(F)(F)F)cc2)CC1 | 1460 | –
8 | O=C(C1=Cc2ccccc2S1(=O)=O)N1CCN(C(=O)c2cccnc2N2CCOCC2)CC1 | 3420 | –
9 | Cc1noc(C)c1S(=O)(=O)N1CCN(C(=O)C2=Cc3ccccc3S2(=O)=O)CC1 | 1470 | –
10 | O=C(C1=Cc2ccccc2S1(=O)=O)N1CCN(Cc2cccc(F)c2)CC1 | 950 | –
11 | O=C(C1=Cc2ccccc2S1(=O)=O)N1CCN(C(=O)c2cc(F)c(F)cc2F)CC1 | 870 | –
12 | Cc1nc(C)c(C(=O)NC2CCN(C(=O)C3=Cc4ccccc4S3(=O)=O)CC2)nc1C | 2130 | –
13 | COC(=O)c1sccc1S(=O)(=O)N1CCN(C(=O)C2=Cc3ccccc3S2(=O)=O)CC1 | 4480 | –
14 | O=C(C1=Cc2ccccc2S1(=O)=O)N1CCN(Cc2ccc(S(=O)(=O)C(F)(F)F)cc2)CC1 | 1790 | –
15 | O=C(C1=Cc2ccccc2S1(=O)=O)N1CCN(C(=O)c2ccc(F)cn2)CC1 | 2090 | –
16 | O=C(C1=Cc2ccccc2S1(=O)=O)N1CCN(S(=O)(=O)c2ccc3ccccc3c2)CC1 | > 10000 | –
17 | CC(C)(C)OC(=O)n1cc(CN2CCN(C(=O)C3=Cc4ccccc4S3(=O)=O)CC2)c2ccccc21 | 5120 | –
18 | Cc1cccc(CN2CCN(C(=O)C3=Cc4ccccc4S3(=O)=O)CC2)c1 | 2550 | –
19 | O=C(C1=Cc2ccccc2S1(=O)=O)N1CCN(Cc2ccc(-c3ccccc3)cc2)CC1 | 6470 | –
20 | O=C(Cc1ccccc1[N+](=O)[O-])NC1CCN(C(=O)C2=Cc3ccccc3S2(=O)=O)CC1 | > 10000 | –
21 | O=C(NC1CCN(C(=O)C2=Cc3ccccc3S2(=O)=O)CC1)c1ccc(Cl)cc1 | 6260 | –
22 | O=C(C1=Cc2ccccc2S1(=O)=O)N1CCN(Cc2c(F)c(F)c(F)c(F)c2F)CC1 | 1290 | –
23 | CC(C)(C)OC(=O)N1CCOC(C(=O)N2CCN(C(=O)C3=Cc4ccccc4S3(=O)=O)CC2)C1 (centres undefined) | 5230 | –
24 | O=C(C1=Cc2ccccc2S1(=O)=O)N1CCN(S(=O)(=O)C2CCCCC2)CC1 | 8920 | –
25 | COC(=O)c1ccc(CN2CCN(C(=O)C3=Cc4ccccc4S3(=O)=O)CC2)cc1 | 630 | –

Row | Structure (SMILES) | IC50 (NIH3T3) [nM] | other results
26 | COC(=O)c1ccc2c(c1)NC(=O)/C2=C(\Nc1ccc(N(C)C(=O)CN2CCN(C)CC2)cc1)c1ccccc1 [NINTEDANIB] | 2410 | Activity (Mus musculus [1]): 3.55%; Activity (Mus musculus [2]): 12.36%; Activity (Mus musculus [3]): 20.61%
27 | O=C(CC1CCCC1)NC1CCN(C(=O)C2=Cc3ccccc3S2(=O)=O)CC1 | > 10000 | –
28 | O=C(C1=Cc2ccccc2S1(=O)=O)N1CCN(C(=O)c2ccccn2)CC1 | 6020 | –
29 | O=C(CC1CCCCC1)NC1CCN(C(=O)C2=Cc3ccccc3S2(=O)=O)CC1 | > 10000 | –
30 | O=C(C1=Cc2ccccc2S1(=O)=O)N1CCN(Cc2cccc(C(F)(F)F)c2)CC1 | 1320 | –
31 | O=C(C1=Cc2ccccc2S1(=O)=O)N1CCN(C(=O)c2ccc(N3CCOCC3)nc2)CC1 | 2490 | –
32 | O=C(C1=Cc2ccccc2S1(=O)=O)N1CCN(C(=O)c2cc3ccccc3o2)CC1 | 1220 | –
33 | O=C(C1=Cc2ccccc2S1(=O)=O)N1CCN(C(=O)c2cccnc2)CC1 | 8450 | –
34 | O=C(C1=Cc2ccccc2S1(=O)=O)N1CCN(Cc2cc(F)c(F)c(F)c2F)CC1 | 1260 | –
35 | COc1ccc(CN2CCN(C(=O)C3=Cc4ccccc4S3(=O)=O)CC2)cc1 | 1780 | –
36 | COc1cc(CN2CCN(C(=O)C3=Cc4ccccc4S3(=O)=O)CC2)cc(OC)c1 | 1110 | –
37 | O=C(Cc1cccc2c1CCO2)NC1CCN(C(=O)C2=Cc3ccccc3S2(=O)=O)CC1 | 3980 | –
38 | O=C(C1=Cc2ccccc2S1(=O)=O)N1CCN(Cc2ccc(C(F)(F)F)o2)CC1 | 1900 | –
39 | COC(=O)c1ccc(CN2CCN(C(=O)C3=Cc4ccccc4S3(=O)=O)CC2)cc1OC | 1240 | –
40 | O=C(Cc1cccc([N+](=O)[O-])c1)NC1CCN(C(=O)C2=Cc3ccccc3S2(=O)=O)CC1 | > 10000 | –
41 | CN(C)c1ccc(CC(=O)NC2CCN(C(=O)C3=Cc4ccccc4S3(=O)=O)CC2)cc1 | > 10000 | –
42 | Cc1ccc(CN2CCN(C(=O)C3=Cc4ccccc4S3(=O)=O)CC2)cc1 | 1660 | –
43 | O=[N+]([O-])c1ccc2c(c1)S(=O)(=O)C=C2 | 1180 | Activity (A549 [4]): Active; inhibition (A549 [5]): Active
44 | O=C(C1=Cc2ccccc2S1(=O)=O)N1CCN(S(=O)(=O)c2cccs2)CC1 | 3870 | –
45 | O=C(Cc1cccc(C2CC2)c1)N1CCN(C(=O)C2=Cc3ccccc3S2(=O)=O)CC1 | 1750 | –
46 | COC(=O)c1cccc(CN2CCN(C(=O)C3=Cc4ccccc4S3(=O)=O)CC2)c1 | 1400 | –
47 | O=C(C1=Cc2ccccc2S1(=O)=O)N1CCN(Cc2ccccc2F)CC1 | 1000 | –
48 | O=C(CN1CCOCC1)NC1CCN(C(=O)C2=Cc3ccccc3S2(=O)=O)CC1 | 4850 | –
49 | COS(=O)(=O)c1ccc(CN2CCN(C(=O)C3=Cc4ccccc4S3(=O)=O)CC2)cc1 | 930 | –
